Laboratory results reported in patent publication US4698329A, “New renin-inhibitory peptides and their use” (Sankyo Company, Limited, priority 1984, dated 1987).
Square brackets hold non-standard residues; d marks the D form. Peptide text beside a SMILES is read from it. * marks the point of attachment. 1Nal = N[C@@H](Cc1cccc2ccccc12)C(=O)O; Sta = CC(C)C[C@H](N)[C@@H](O)CC(=O)O; Cbz = O=C(OCc1ccccc1)*; NHBu = CCCCN*; NHNH2 = NN*

Target: T1, human renin (Homo sapiens, UniProt P00797)
T1 sequence (P00797 67-406): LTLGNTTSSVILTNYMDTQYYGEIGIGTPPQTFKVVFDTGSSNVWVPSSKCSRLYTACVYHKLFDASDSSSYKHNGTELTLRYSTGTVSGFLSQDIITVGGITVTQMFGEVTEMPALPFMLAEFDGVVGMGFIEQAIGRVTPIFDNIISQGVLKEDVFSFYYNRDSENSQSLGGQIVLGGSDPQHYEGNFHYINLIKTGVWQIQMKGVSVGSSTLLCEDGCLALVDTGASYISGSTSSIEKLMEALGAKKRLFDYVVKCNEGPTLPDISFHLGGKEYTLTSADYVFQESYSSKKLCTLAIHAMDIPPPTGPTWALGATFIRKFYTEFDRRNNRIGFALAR
Experiment: Inhibition of renin activity (human renin, sheep angiotensinogen)
Type: biochemical
Conditions: pH 7.3, 10 minutes at 37° C., mean of 3 or 4 experiments
Method: The ability of various compounds of the invention to inhibit the activity of renin was determined according to the following method, which follows essentially the procedure of Kokubu et al. [Hypertension, 5, 191-197 (1983)].
Specifically, each test compound was dissolved in 60% v/v aqueous ethanol. Human renin activity in the presence and absence of each compound was measured using sheep angiotensinogen. The total volume of 1 ml of assay mixture contained 0.1 mole/liter phosphate buffer (pH 7.3), human renin (equivalent to 0.5 ng angiotensin I per ml per minute), sheep angiotensinogen (equivalent to 200 ng angiotensin I), the indicated concentration of the test compound, 6% ethanol and angiotensinase inhibitors (10 mmole/liter sodium ethylenediaminetetraacetate and 3.4 mmole/liter 8-hydroxyquinoline). The mixture was allowed to react for 10 minutes at 37° C., and then the reaction was stopped by placing the reaction tube in a boiling water bath for 5 minutes. The mixture was then centrifuged and the supernatant (0.05-0.1 ml) was used to assay remaining angiotensin I.
An identical experiment was carried out, as a control, except that the test compound was omitted. From the values obtained were calculated the % inhibition of renin activity achieved by each test compound. The results are shown in the following Table, in which the compounds of the invention are identified by the numbers assigned to them in the foregoing list. The values given are the mean of 3 or 4 experiments.

[1] = concentration of test cpd. 1 × 10^-6 M
[2] = concentration of test cpd. 1 × 10^-5 M

Structure (SMILES)	% Inhibition (human renin) [1] [%]	% Inhibition (human renin) [2] [%]
CC[C@H](C)[C@@H](CO)NC(=O)C[C@H](O)[C@H](CC(C)C)NC(=O)[C@H](CC(C)C)NC(=O)[C@H](Cc1cccc2ccccc12)NC(=O)OCc1ccccc1 [Compound 208, N-{4(S)-[N-benzyloxycarbonyl-3-(1-naphthyl)-L-alanyl-L-leucyl]amino-3(S)-hydroxy-6-methylheptanoyl}-L-isoleucinol]	99.1	
CCNC(=O)C[C@H](O)[C@H](CC(C)C)NC(=O)[C@H](Cc1c[nH]cn1)NC(=O)[C@H](Cc1cccc2ccccc12)NC(=O)OCc1ccccc1 [Compound 66, 4(S)-[N-benzyloxycarbonyl-3-(1-naphthyl)-L-alanyl-L-histidyl]amino-N-ethyl-3(S)-hydroxy-6-methylheptanamide] (Cbz-[1Nal]-His-[Sta]-NHEt)		96
CC(C)C[C@H](NC(=O)[C@H](Cc1c[nH]cn1)NC(=O)[C@H](Cc1cccc2ccccc12)NC(=O)OCc1ccccc1)[C@@H](O)CC(=O)N1CCC(c2ccccc2)CC1 [Compound 36, 1-{4(S)-[N-benzyloxycarbonyl-3-(1-naphthyl)-L-alanyl-L-histidyl]amino-3(S)-hydroxy-6-methylheptanoyl}-4-phenylpiperidine]		84
CC(C)C[C@H](NC(=O)[C@H](Cc1c[nH]cn1)NC(=O)[C@H](Cc1cccc2ccccc12)NC(=O)OCc1ccccc1)[C@@H](O)CC(=O)NNC(=O)CCCc1ccccc1 [Compound 39, N^1 -{4(S)-[N-benzyloxycarbonyl-3-(1-naphthyl)-L-alanyl-L-histidyl]amino-3(S)-hydroxy-6-methylheptanoyl}-N^2-(4-phenylbutyryl)hydrazine]		84
CCOC(=O)C[C@H](O)[C@H](CC(C)C)NC(=O)[C@H](Cc1c[nH]cn1)NC(=O)[C@H](Cc1cccc2ccccc12)NC(=O)OCc1ccccc1 [Compound 5, ethyl 4(S)-[N-benzyloxycarbonyl-3-(1-naphthyl)-L-alanyl-L-histidyl]amino-3(S)-hydroxy-6-methylheptanoate] (Cbz-[1Nal]-His-[Sta]-OEt)		79
CCCCNC(=O)C[C@H](O)[C@H](CC(C)C)NC(=O)[C@H](Cc1c[nH]cn1)NC(=O)[C@H](Cc1cccc2ccccc12)NC(=O)OCc1ccccc1 [Compound 64, 4(S)-[N-benzyloxycarbonyl-3-(1-naphthyl)-L-alanyl-L-histidyl]amino-N-butyl-3(S)-hydroxy-6-methylheptanamide] (Cbz-[1Nal]-His-[Sta]-NHBu)		95
CC[C@H](C)CNC(=O)C[C@H](O)[C@H](CC(C)C)NC(=O)[C@H](Cc1c[nH]cn1)NC(=O)[C@H](Cc1cccc2ccccc12)NC(=O)OCc1ccccc1 [Compound 65, 4(S)-[N-benzyloxycarbonyl-3-(1-naphthyl)-L-alanyl-L-histidyl]amino-3(S)-hydroxy-6-methyl-N-[S-(-)-2-methylbutyl]heptanamide]		99
CCC(C)CNC(=O)C[C@H](O)[C@H](CC(C)C)NC(=O)[C@@H](Cc1c[nH]cn1)NC(=O)[C@H](Cc1cccc2ccccc12)NC(=O)OCc1ccccc1 (stereo partly drawn) [Compound 93, 4(S)-[N-benzyloxycarbonyl-3-(1-naphthyl)-L-alanyl-D-histidyl]amino-3(S)-hydroxy-6-methyl-N-(2-methylbutyl)heptanamide]		99
CC(C)C[C@H](NC(=O)[C@H](Cc1c[nH]cn1)NC(=O)[C@H](Cc1cccc2ccccc12)NC(=O)OCc1ccccc1)[C@@H](O)CC(=O)NN [Compound 38, 4(S)-[N-benzyloxycarbonyl-3-(1-naphthyl)-L-alanyl-L-histidyl]amino-3(S)-hydroxy-6-methylheptanoic acid hydrazide] (Cbz-[1Nal]-His-[Sta]-NHNH2)		89
CCC(C)CNC(=O)C[C@H](O)[C@H](CC(C)C)NC(=O)[C@H](CC(C)C)NC(=O)[C@H](Cc1cccc2ccccc12)NC(=O)OCc1ccccc1 (stereo partly drawn) [Compound 207, N-(2-methylbutyl)-4(S)-[N-benzyloxycarbonyl-3-(1-naphthyl)-L-alanyl-L-leucyl]amino-3(S)-hydroxy-6-methylheptanamide]	98.4	
COC(=O)[C@@H](O)[C@H](CC(C)C)NC(=O)[C@H](Cc1c[nH]cn1)NC(=O)[C@H](Cc1cccc2ccccc12)NC(=O)OCc1ccccc1 [Compound 62, methyl 3(S)-[N-benzyloxycarbonyl-3-(1-naphthyl)-L-alanyl-L-histidyl]amino-2(S)-hydroxy-5-methylhexanoate]		53
CC(C)C[C@H](NC(=O)[C@H](Cc1c[nH]cn1)NC(=O)[C@H](Cc1cccc2ccccc12)NC(=O)OCc1ccccc1)[C@@H](O)CC(=O)O [Compound 3, 4(S)-[N-benzyloxycarbonyl-3-(1-naphthyl)-L-alanyl-L-histidyl]amino-3(S)-hydroxy-6-methylheptanoic acid] (Cbz-[1Nal]-His-[Sta]-OH)		72
CC[C@H](C)[C@@H](CO)NC(=O)C[C@H](O)[C@H](CC(C)C)NC(=O)[C@H](Cc1c[nH]cn1)NC(=O)[C@H](Cc1cccc2ccccc12)NC(=O)OCc1ccccc1 [Compound 67, N-{4(S)-[N-benzyloxycarbonyl-3-(1-naphthyl)-L-alanyl-L-histidyl]amino-3(S)-hydroxy-6-methylheptanoyl}-L-isoleucinol]		98
CCC(C)CNC(=O)C[C@H](O)[C@H](CC(C)C)NC(=O)C(Cc1cscn1)NC(=O)[C@H](Cc1cccc2ccccc12)NC(=O)OCc1ccccc1 (mixture of isomers) [Compound 238, N-(2-methylbutyl)-4(S)-[N-benzyloxycarbonyl-3-(1-naphthyl)-L-alanyl-3-(1,3-thiazol-4-yl)-DL-alanyl]amino-3(S)-hydroxy-6-methylheptanamide]	98.2	
